Results published in patent US9993538B2, “Peptide vaccine therapy for treatment of FRα-expressing tumors” (Galena Biopharma, Inc., priority 2015, dated 2018).
No end group written: not given here.

Columns and labels:
[1] = design: species or system human; details: in vivo
Excerpt: Eligible patients were identified with endometrial, ovarian, fallopian tube or peritoneal cancer and were disease-free after standard of care therapies. Patients were surgically or naturally post-menopausal. Exclusion criteria included patients currently receiving immunosuppressive therapy to include chemotherapy, steroids or methotrexate, poor health (ECOG […]), evidence of end-organ dysfunction, pregnancy, breast feeding, history of autoimmune disease, and involvement in other experimental protocols (except with permission of the principal investigator of the other study). […]
The E39 peptide (FBP 191-199, EIWTHSYKV) was produced commercially by an FDA-compliant production facility for patient use. […] This dose (250 mcg) of GM-CSF has been previously determined to be a safe and effective dose, based on our prior work with NeuVax^6. […]
The phase I portion of this trial consisted of dose escalation to determine a safe and effective dose of the E39 peptide. […] Prior to the fourth inoculation, each patient was assessed for liver, renal, and hematopoietic dysfunction. […]
Standard local and systemic toxicities were collected and graded per the National Cancer Institute Common Terminology Criteria for Adverse Events, v4.03 toxicity scale. […] Systemic toxicity and inoculation site local reactions were also determined after 48-72 hours.

[2] = tested on: tumor-associated lymphocyte (TAL); details: cited from earlier work
[3] = Booster study: local reactions (LR) 48-72 hours after each booster, safety; assay type: in vivo, human; details: 500 mcg peptide + 250 mcg GM-CSF booster
Excerpt: Booster inoculations of peptide vaccines may improve disease-free survival (DFS) (e.g., U.S. Pat. No. 8,222,214), but repeated boosting can theoretically lead to overstimulation and loss of vaccine-induced T cells. Therefore, to assess the use of the attenuated E39′ peptide as a booster, E39-vaccinated patients described in Example 1 were randomized to receive either E39 or E39′ as a booster to determine the effect on long-term E39-specific immunity. Patients in the VG received six intradermal E39 injections as described in Example 1 as a primary vaccination schedule (PVS). […]
Local reactions (LR) were recorded 48-72 hours after each booster. Immune response was determined by measurement of E39 specific CTL levels using a Dextramer reagents in accordance with the manufacturer's instructions (Immudex Limited, Copenhagen, Denmark) as previously described (e.g., Tario et al. Cytometry B Clin. Cytom. 2015; 88B:6-20; Baba J. Transl Med. 2010; 8:84), at R0 (baseline pre-vaccination), RC1(1 month after completion of PVS), RC6 (6 months after completion of PVS and before booster), RC7 (1 month after booster) and RC12 (6 months after booster and 12 months after completion of PVS). Demographic, safety, immunological, and DFS data were collected and evaluated.

In the case of EIWTHSYKV [E39, EIWTHSYKV], the “patients experiencing grade 3 toxicity” value [1] is reported as 1 patient.

For “E41: FRα-derived immunogenic peptide E41 (FRα 245-253) (LLSLALMLL; UniProt P15328 245-253, looked up, fragment)”, the “effect on TAL proliferation and anti-tumor function” value [2] is given as “capable of enhancing tumor-associated lymphocyte (TAL) proliferation and anti-tumor function”.

With EIWTFSTKV [E39′, EIWTFSTKV] the safety of booster [3] was “safe”.
